The structures appear in SMILES notation. Read-outs that look alike come from different tables or passages of the source.

A short description of data set [1]: Normalized body weight of treated T. brucei-infected mice. The note with it: oral 2 (20 mg/kg) or 3 (25 mg/kg). Format: in vivo.
Protocol: Formulated compounds or vehicle control (0.2% HPMC) were administered by oral gavage starting 24 h after mouse infection with T. brucei[33][34]. Animals were weighed before each compound administration, and dose volume was adjusted based on body weight (10 mL/kg) to deliver accurate doses of test compounds. The treatment was ceased for animals when normalized body weight (NBW) loss exceeded 20%, and resumed after NBW recovery above 90%. […] 1: 30 mg/kg or 40 mg/kg, treatment regimen of “4 days on/2 days off” for a total of 14 doses; 2: 20 mg/kg (days 2–5), 10 mg/kg (day 7), 5 mg/kg (days 8–9), no drug (day 6, days 10–13); 3: 25 mg/kg (days 2–5), 12.5 mg/kg (day 7), 6.25 mg/kg (days 8–10), no drug (day 6, days 11–13). Scheduled euthanasia by CO2 overdose followed by incision to form a bilateral pneumothorax was conducted on mice considered cured 30 days after the end of experimental treatment (see previous section). Mice with parasitemia greater than 2 × 10^8 trypanosomes/mL or NBW losses ≥30% were subjected to unscheduled euthanasia.
In data set [2] the test system is T. b. rhodesiense. As to the kind of experiment: Trypanosome proliferation inhibition assay (GI50), T. b. rhodesiense. Conditions: Trypanosoma brucei, 4 × 10^3 cells/mL, 24-well plates, 48 h, read-out: Growth inhibition (GI50) ± SD T. b. rhodesiense. The data set is classed as cell-based.
Protocol: T. brucei (brucei or rhodesiense) were seeded at 4 × 10^3 cells/mL in 24-well plates (0.5 or 1 mL of culture per well). […] Compounds were initially tested at 10 nM, 100 nM or 1 μM, to define a range where cell density responded to drug concentrations. Then, at least five drug concentrations[26] covering this range was used for subsequent assays. Each concentration was tested in duplicate. Cell density was determined with a Neubauer Bright-Line hemocytometer (Sigma) after 48 h. Cells were counted only if they were motile. […] Final mean GI50 values were calculated based on two independent experiments, each with at least five data points performed in duplicate.
Data set [3] has as its system bloodstream T. brucei. Nature of the data set: Trypanosome proliferation inhibition assay (GI50). Format: cell-based, Trypanosoma brucei brucei. Conditions: for Selectivity Index HL GI50/Tbb GI50: ratio between HeLa and T. brucei GI50. The protocol:
T. brucei (brucei or rhodesiense) were seeded at 4 × 10^3 cells/mL in 24-well plates (0.5 or 1 mL of culture per well). […] Then, at least five drug concentrations[26] covering this range was used for subsequent assays. Each concentration was tested in duplicate. […] Cells were counted only if they were motile. […] Final mean GI50 values were calculated based on two independent experiments, each with at least five data points performed in duplicate. T. brucei were seeded at 4 × 10^3 cells/mL and dispensed into wells of a 384-well black plate (Greiner; Frickenhausen, Germany). Wells in two columns per plate were filled with 50 μL of HMI-9 medium using a Multidrop Combi (Thermo Scientific; Waltham, MA) to serve as a background control. Fifty microliters of trypanosome suspension was added to separate columns using a Multidrop Combi. Lastly, an additional 50 μL of cell resuspension was added to only the top row of wells that contained cells (row A, labeled by Greiner), using an Xplorer multichannel pipette (Eppendorf; Hamburg-Eppendorf, Germany) bringing final volumes of cell-containing wells in the top row to 100 μL. […] St. Louis, MO). A microliter of DMSO (25%) or diluted drug was added to wells containing cells of the top row using an Xplorer multichannel pipette. Each concentration was tested in duplicate. Cells and DMSO/drug were mixed and serially diluted 1:2 down the rows of the plate. […] Cells were lysed by addition of 15 μL of SYBR Green I (Invitrogen; Carlsbad, CA) in lysis solution[30] (5X SYBR Green I, 30 mM Tris pH 7.5, 7.5 mM EDTA, 0.012% saponin and 0.12% Triton X-100) to each well. […] Data collected was exported to Excel from Ascent Software (Thermo Scientific). Base-line corrected non-linear regression graphs were generated and GI50 values determined using GraphPad Prism (GraphPad Software; La Jolla, CA). Final mean GI50 values were calculated based on four separate biological replicates.

The subject of data set [4] is T. brucei. Nature of the data set: Mouse model of HAT: oral treatment of T. brucei-infected mice. Format: in vivo, Trypanosoma brucei brucei. The note with it: for survival of infected mice compared to control untreated animals: administered orally; for reduction of parasitemia: day six, after full oral dose days two to five (2: 20 mg/kg, 3: 25 mg/kg); for increase in average survival: infected mice treated orally, versus vehicle (5 days on average); for cure of T. brucei infection in mice: oral administration. The protocol:
Cultured T. brucei were pelleted and resuspended in cold phosphate buffered saline (PBS) containing 1% glucose at 1 × 10^5 cells/mL. Female Swiss-Webster mice (8–10 weeks old, 20–25 g, n = 4 per group) (Harlan; Indianapolis, IN) were infected intraperitoneally (i.p.) with 10^4 bloodstream trypanosomes in 100 μL of PBS using 26G needles. To avoid damage to T. brucei cells, mechanical stress during administration was minimized by avoiding repeated pulling and pushing movements of cell resuspension through the syringe needle. Starting 48 h post-infection, and every 1–8 days thereafter, parasitemia was monitored by collecting 3 μL of blood from the tail vein of mice. Blood samples were supplemented with 21 μL of RBC Lysis Solution (Qiagen; Valencia, CA) and incubated at room temperature for 15–45 min. prior to observing for parasites using a Neubauer Bright-line hemocytometer. Mice with parasitemia greater than 2 × 10^8 trypanosomes/mL were euthanized. […] To compare animal survival in treatment and vehicle control groups, Student’s t-test was performed in Excel to generate p-values. All animal experiments were conducted with the approval of the Institutional Animal Care and Use Committee (IACUC) at the University of Georgia. All experimental protocols involving animals were carried out in accordance with the approved guidelines of the IACUC at the University of Georgia.
Formulated compounds or vehicle control (0.2% HPMC) were administered by oral gavage starting 24 h after mouse infection with T. brucei. Animals were weighed before each compound administration, and dose volume was adjusted based on body weight (10 mL/kg) to deliver accurate doses of test compounds. The treatment was ceased for animals when normalized body weight (NBW) loss exceeded 20%, and resumed after NBW recovery above 90%. […] 1: 30 mg/kg or 40 mg/kg, treatment regimen of “4 days on/2 days off” for a total of 14 doses; 2: 20 mg/kg (days 2–5), 10 mg/kg (day 7), 5 mg/kg (days 8–9), no drug (day 6, days 10–13); 3: 25 mg/kg (days 2–5), 12.5 mg/kg (day 7), 6.25 mg/kg (days 8–10), no drug (day 6, days 11–13). Scheduled euthanasia by CO2 overdose followed by incision to form a bilateral pneumothorax was conducted on mice considered cured 30 days after the end of experimental treatment (see previous section). Mice with parasitemia greater than 2 × 10^8 trypanosomes/mL or NBW losses ≥30% were subjected to unscheduled euthanasia.

The conditions of data set [5]: ref Cleveland BioLabs, unpublished data; cited from earlier work.
The subject of data set [6] is HeLa cells. Nature of the data set: HeLa cell proliferation inhibition assay (GI50). Conditions: Homo sapiens; HeLa 1 × 10^5 cells/mL, 24 h with compound; read-out: Growth inhibition (GI50) ± SD HeLa. Format: cell-based.
Protocol: HeLa cells were seeded to 1 × 10^5 cells/mL in 24-well plates (1 mL of culture per well) and incubated drug-free for 24 h at 37 °C, 5% CO2. DMSO or stock inhibitor concentration (5 μL) was added to obtain the specified final concentrations. Cells were incubated for 24 h[28][29] at 37 °C, 5% CO2. Next, cells were trypsinized and cell density was determined with a Neubauer Bright-line hemocytometer as described[9]. GI50 for each compound was calculated by plotting data for the cell counts in Excel as described for T. brucei above. Data were obtained from two independent experiments, four separate biological replicates.
In data set [7] the test system is T. brucei. Nature of the data set: Thirty-hour treatment of trypanosomes: cell density, kinetoplast/nucleus copy number, DNA content. The data set is classed as cell-based, Trypanosoma brucei brucei. The note with it: 200 nM.
Protocol: At stated times trypanosome density was determined using a Z2 Coulter Counter (Beckman). […] At the same time-points a 5 mL aliquot (5 × 10^5–1 × 10^7 cells total) was collected and analyzed by flow cytometry as described below. All data reported were obtained from three independent experiments.
T. brucei (between 5 × 10^5 cells to 1 × 10^7 cells) in 5 mL of culture medium were centrifuged (3 min, 3000 × g at room temperature) to pellet cells and washed once with 1 mL of PBS containing 10 mM glucose. Cells were fixed in 1 mL of 70% methanol supplemented by PBS at 4 °C for up to two weeks, centrifuged (3 min, 2000 × g at room temperature), and resuspended at 5 × 10^5 cells/mL in 1X PBS. RNase A and propidium iodide (PI) were added to each sample to final concentrations of 500 μg/mL and 7.5 μM, respectively, and the suspension was protected from light during incubation for 1 h at 37 °C[35]. Samples were placed on ice for 15 min and data was immediately collected on a CyAn ADP Analyzer (Beckman Coulter; Hialeah, FL). During analysis with FlowJo software (FlowJo, LLC; Ashland, OR), trypanosomes were gated from background debris by plotting “events” as forward scatter vs. side scatter (both on the logarithmic scale). Single trypanosomes were gated for cell cycle analysis from cells stuck together (“doublets”) by plotting trypanosome events as PI fluorescence vs. pulse width. Distribution of trypanosomes into groups containing different amounts of chromosomal DNA was performed using Watson-Pragmatic algorithm in FlowJo. DNA distribution values from independent experiments were averaged with error bars generated and graphed in Excel. To compare effects of drug treatment on DNA content of experimental and vehicle control groups, Student’s t-test was performed in Excel to generate p-values.
The mark [8] stands for this setting: Trypanosoma brucei, 48 h, 4 × 10^3 cells/mL, 24-well plates, 48 h, Table 1, read-out: Growth inhibition (GI50) ± SD T. b. brucei.
[9] abbreviates: Trypanosoma brucei, 48 h, T. brucei 4 × 10^3 cells/mL, 48 h, Fig. 1, read-out: GI50.
Where [10] appears, read: Trypanosoma brucei, against T. brucei, read-out: GI50.

Regarding `CC(=O)c1cc2c3c4c(ccc3n(CCCN(C)C)c2cc1O)C(=O)CC4` [Compound 2], in data set [1], the “weight loss of normal body weight (NBW)” value is reported as “exceeding 10%”. Moreover, in data set [2], the concentration for 50% growth inhibition (GI50) (usually the concentration at which growth is held to half of that of the control) is 13 ± 3 nM. For the same compound, in data set [3] (setting [8]), the GI50 stood at 7.4 ± 0.2 nM. Further, the GI50 in data set [3] (setting [9]) is below 10 nM. Further, in data set [3], the “Selectivity Index HL GI50/Tbb GI50” value amounted to 78. In data set [4], the “survival of infected mice compared to control untreated animals” value is listed as “increased survival”, the reduction of parasitemia is on record as 100 fold, the “increase in average survival” value was 2 fold and the “cure of T. brucei infection in mice” value was “failed to cure”. Moreover, in data set [5], the oral bioavailability result is on record as “orally bioavailable”. Also, the 50% growth inhibitory concentration (GI50) in data set [6] stood at 580 ± 100 nM. For `CCN(CC)CCn1c2ccc(C3=NCCN3)cc2c2cc(C3=NCCN3)ccc21` [CBL0030], the 50% growth inhibitory concentration (GI50) in data set [3] (setting [9]) is 1500 ± 210 nM. Regarding `CCN(CC)CCn1c2ccc3c(c2c2c4c(ccc21)C(=O)CC4)CCC3=O` [CBL0100], in data set [3] (setting [9]), the GI50 worked out at 0.97 ± 0.08 nM.

For the compound `CC(=O)c1ccc2c(c1)c1c3c(ccc1n2CC[C@@H]1CCCN1C)C(=O)CC3` [CBL0211], the GI50 in data set [3] (setting [9]) was found to be 2.3 ± 0.58 nM. On the same count and under the same terms, the result for `O=C1CCc2c1ccc1c2c2c3c(ccc2n1CCN1CCOCC1)C(=O)CC3` [CBL0207] reads 17 ± 0.2 nM; that for `CC(=O)c1ccc2c(c1)c1cc(C(C)=O)ccc1n2CCCN(C)C` [CBL0031], 260 ± 0.64 nM. The same measure, in the same setting: the figure for `CC(=O)c1ccc2c(c1)c1c3c(ccc1n2CCNC(C)C)C(=O)CC3` [CBL0252] is 8.5 ± 0.22 nM. Same read-out and setting: the result for `CN(C)CCCn1c2ccc3c(c2c2c4c(ccc21)C(=O)CC4)CCC3=O` [CBL0253] reads 0.74 ± 0.27 nM. As for `CC[n+]1c(-c2ccccc2)c2cc(N)ccc2c2ccc(N)cc21` [ethidium bromide], in data set [7] (30 h time-course), the “formation of dyskinetoplastic trypanosomes (0K1N)” value is “produced dyskinetoplastic trypanosomes”. Besides, the “effect on nuclear DNA content compared to vehicle” value in data set [7] (30 h treatment, flow cytometry) is listed as “little or no effect”. Besides, the “increase in cell density during 30 h treatment” value in data set [7] (T. brucei seeded 1 × 10^5 cells/mL) is 2.5 fold. Consider `CCNCCCn1c2ccc3c(c2c2c4c(ccc21)C(=O)CC4)CCC3=O` [CBL0198], for which, in data set [3] (setting [9]), the GI50 amounted to 2.8 ± 0.49 nM. Same read-out and setting: the result for `CCN(CC)CCn1c2ccc(C#N)cc2c2cc(C#N)ccc21` [CBL0018] reads 250 ± 20 nM; that for `CC(C)NCCn1c2ccc3c(c2c2c4c(ccc21)C(=O)CC4)CCC3=O` [CBL0197], 0.95 ± 0.05 nM; that for `CCN(CC)CCn1c2ccc(C(C)=O)cc2c2cc(C(C)=O)ccc21` [CBL0014], 76 ± 20 nM. `CN(C)CCCn1c2ccccc2c2cnccc21` [CBL0144]: the GI50 in data set [3] (setting [10]) was above 10000 nM.

In the case of `CC(=O)c1ccc2c(c1)c1cc(C(C)=O)ccc1n2CCCNC(C)C` [CBL0127], the concentration for 50% growth inhibition (GI50) in data set [3] (setting [9]) was determined as 170 ± 3 nM. With `CCN(CC)CCn1c2ccccc2c2cnccc21` [CBL0139], the GI50 in data set [3] (setting [10]) is above 10000 nM. Regarding `CCOC(=O)N1CCC(n2c3ccc(C(C)=O)cc3c3cc(C(C)=O)ccc32)CC1` [CBL0149], the GI50 in data set [3] (setting [9]) was 5300 ± 1500 nM. Regarding `CON=C1CCc2c1ccc1c2c2c3c(ccc2n1CCN1CCOCC1)C(=NOC)CC3` [CBL0209], the GI50 in data set [3] (setting [9]) stood at 460 ± 18 nM. On the same count and under the same terms, the figure for `CC(=O)c1ccc2c(c1)c1c3c(ccc1n2CC[C@H]1CCCN1C)C(=O)CC3` [CBL0212] is 8.2 ± 0.23 nM. In the case of `CCCNCCCn1c2ccc3c(c2c2c4c(ccc21)C(=O)CC4)CCC3=O` [Compound 3], the “weight loss of normal body weight (NBW)” value in data set [1] is given as “exceeding 10%”. The GI50 is 3.6 ± 0.3 nM in data set [2], 2.2 ± 0.1 nM in data set [3] (setting [8]), below 10 nM in data set [3] (setting [9]) and 520 ± 40 nM in data set [6]. The “Selectivity Index HL GI50/Tbb GI50” value in data set [3] is given as 236. The “survival of infected mice compared to control untreated animals” value in data set [4] is “increased survival”. For the same compound, the reduction of parasitemia in data set [4] worked out at 100 fold. Further, in data set [4], the “increase in average survival” value is recorded as 2 fold. Further, the “cure of T. brucei infection in mice” value in data set [4] was “failed to cure”. For the same compound, in data set [5], the oral bioavailability result is “orally bioavailable”.

On to `CCCNCCCn1c2ccc(C(C)=O)cc2c2c3c(ccc21)C(=O)CC3` [CBL0175], for which, in data set [3] (setting [9]), the 50% growth inhibitory concentration (GI50) worked out at 9.5 ± 1.4 nM. Same read-out and setting: the figure for `CC(=O)c1ccc2c(c1)c1cc(C(C)=O)ccc1n2CCC1CCCN1C` (stereo not shown) [CBL0053] is 58 ± 5.3 nM. The same measure, in the same setting: the result for `CC(=O)c1cc2c3cc(C(C)=O)c(O)cc3n(CCNC(C)C)c2cc1O` [CBL0187] reads 33 ± 2.1 nM. The same measure, in the same setting: the figure for `CC(=O)c1cc2c3cc(C(C)=O)c(O)cc3n(CCCN(C)C)c2cc1O` [CBL0174] is 25 ± 1.9 nM.

With `CC(=O)c1cc2c3c4c(ccc3n(CCCN(C)C)c2cc1O)C(=O)N(C)C4` [CBL0167], the GI50 in data set [3] (T. brucei 4 × 10^3 cells/mL, 48 h, Fig. 1, read-out: GI50) is 21 ± 2.9 nM; in data set [3] (setting [9]), below 25 nM. Turning to `CCN(CC)CCCC(C)n1c2ccc3c(c2c2c4c(ccc21)C(=O)CC4)CCC3=O` (stereo not shown) [CBL0100Q], the GI50 in data set [3] (setting [9]) is 240 ± 2 nM.

The record behind these values is paper PMC5000474, “Discovery of a Carbazole-Derived Lead Drug for Human African Trypanosomiasis” (Scientific Reports, 2016).
